Reference: ChEMBL document CHEMBL1148949, “(2S,3R)-2-aminododecan-3-ol, a new antifungal agent from the ascidian Clavelina oblonga” (2004)
Converted amounts (≈) assume the structure as drawn.

Key:
Candida albicans = assay: Antifungal activity against Candida albicans ATCC 10231; assay type: functional
Nakaseomyces glabratus = assay: Antifungal activity against Candida glabrata; assay type: functional

Compound `CCCCCCCCC[C@@H](O)[C@H](C)N` has an MIC (Candida albicans) of 0.7 mg/L (≈ 3.48 µM) and an MIC (Nakaseomyces glabratus) of 30 mg/L (≈ 149 µM).
In the case of `CC(=O)N1CCN(c2ccc(OCC3COC(Cn4ccnc4)(c4ccc(Cl)cc4Cl)O3)cc2)CC1` (centres undefined) [KETOCONAZOLE], the MIC (Candida albicans) is reported as 0.01 mg/L (≈ 0.0188 µM).
For NYSTATIN, the MIC (Candida albicans) was 1 mg/L.
